{"source": "paper PMC9154192", "about": "(PLoS Biology, 2022)", "key": {"[1]": {"tested_on": "M. tuberculosis H37Rv", "assay": "microbe, parasite or virus in culture", "type": "cell-based, Mycobacterium tuberculosis", "settings": "Mycobacterium tuberculosis, H37RV; read-out: MIC"}, "[2]": {"tested_on": "XDR M. tuberculosis (KMRC 00203–00197)", "type": "cell-based, Mycobacterium tuberculosis"}, "[3]": {"tested_on": "M. tuberculosis H37Rv", "type": "cell-based, Mycobacterium tuberculosis", "settings": "for RFU/200 μl (replicates1-3), single values / RFU/ml (×104) / RFU/200 μl (average): Fig 2A"}, "[4]": {"tested_on": "XDR M. tuberculosis", "type": "cell-based, Mycobacterium tuberculosis"}, "[5]": {"tested_on": "XDR M. tuberculosis", "assay": "Luminescence-based microbial cell viability assay", "parameters": "species or system Mycobacterium tuberculosis"}, "[6]": {"tested_on": "M. tuberculosis H37Rv", "type": "in vivo, BALB/c mice", "parameters": "Efficacy in BALB/C mouse model of pulmonary tuberculosis, Average / Efficacy in BALB/C mouse model of pulmonary tuberculosis, values of mice 1-6: unit not given here", "settings": "Fig 4C, group dose 30, 6 mice"}, "[7]": {"assay": "in vitro", "type": "cell-based", "settings": "human", "description": "A549 human pulmonary epithelial cells (KCLB 10185), human embryonic kidney (HEK) 293 cells (KCLB 21573), human THP-1 leukemia cells (KCLB 40202), human neuroblastoma SH-SY5Y cells (KCLB 22266), Murine Raw 264.7 macrophages (KCLB 40071), and L929 murine fibroblasts (KCLB 10001) were purchased from the KCLB (Seoul, Korea). Cytotoxicity testing was performed using the MTT assay and the WST-1 cell viability assay as previously described."}, "[8]": {"assay": "in vitro", "type": "cell-based, murine", "settings": "mouse", "in_short": "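Read-out: cell viability by WST-1 reduction and by MTT. The cytotoxicity workflow followed methods described previously.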"}, "[9]": {"tested_on": "M. avium", "assay": "microbe, parasite or virus in culture", "type": "cell-based", "settings": "Mycobacterium avium"}, "[10]": {"tested_on": "M. colombiense", "assay": "microbe, parasite or virus in culture", "type": "cell-based", "settings": "Mycobacterium colombiense"}, "[11]": {"tested_on": "Acinetobacter baumannii", "assay": "Broth dilution MIC (CLSI)", "type": "cell-based", "settings": "read-out: MIC"}, "[12]": {"tested_on": "Aspergillus fumigatus", "assay": "Broth dilution MIC (CLSI)", "type": "cell-based", "settings": "read-out: MIC"}, "[13]": {"tested_on": "Bacillus subtilis", "assay": "Broth dilution MIC (CLSI)", "type": "cell-based", "settings": "read-out: MIC"}, "[14]": {"tested_on": "Candida albicans", "assay": "Broth dilution MIC (CLSI)", "type": "cell-based", "settings": "read-out: MIC"}, "[15]": {"tested_on": "Escherichia coli O157", "assay": "Broth dilution MIC (CLSI)", "type": "cell-based", "settings": "read-out: MIC"}, "[16]": {"tested_on": "Escherichia coli", "assay": "Broth dilution MIC (CLSI)", "type": "cell-based", "settings": "read-out: MIC"}, "[17]": {"tested_on": "Klebsiella pneumoniae", "assay": "Broth dilution MIC (CLSI)", "type": "cell-based", "settings": "read-out: MIC"}, "[18]": {"tested_on": "Proteus mirabilis", "assay": "Broth dilution MIC (CLSI)", "type": "cell-based", "settings": "read-out: MIC"}, "[19]": {"tested_on": "Saccharomyces cerevisiae", "assay": "Broth dilution MIC (CLSI)", "type": "cell-based", "settings": "read-out: MIC"}, "[20]": {"tested_on": "Serratia marcescens", "assay": "Broth dilution MIC (CLSI)", "type": "cell-based", "settings": "read-out: MIC"}, "[21]": {"tested_on": "Shigella dysenteriae", "assay": "Broth dilution MIC (CLSI)", "type": "cell-based", "settings": "read-out: MIC"}, "[22]": {"tested_on": "Shigella flexneri", "assay": "Broth dilution MIC (CLSI)", "type": "cell-based", "settings": "read-out: MIC"}, "[23]": {"tested_on": "Staphylococcus epidermidis", "assay": "Broth dilution MIC (CLSI)", "type": "cell-based", "settings": "read-out: MIC"}, "[24]": {"tested_on": "Streptococcus pneumoniae", "assay": "Broth dilution MIC (CLSI)", "type": "cell-based", "settings": "read-out: MIC"}, "[25]": {"tested_on": "Trichophyton rubrum", "assay": "Broth dilution MIC (CLSI)", "type": "cell-based", "settings": "read-out: MIC"}}, "note": "Values joined by “and” are separate entries in the source; they are usually repeats but may differ in a detail not shown here. Equal values may be shown once. Read-outs that look alike come from different tables or passages of the source."}
{"smiles": "NNC(=O)c1ccncc1", "note": "[INH, isoniazid, reference compound]", "values": [{"measurement": "MIC", "setting": "[1]", "value": 0.4, "unit": "µg/mL"}, {"measurement": "CFU (replicates1-3), single values", "setting": "[2]", "value": "6900 CFU and 40600 CFU and 43800 CFU and 52100 CFU and 37500 CFU and 35600 CFU and 31700 CFU and 15100 CFU and 27000 CFU and 106000 CFU and 157000 CFU and 148000 CFU and 98000 CFU and 61800 CFU and 75500 CFU and 71000 CFU and 87000 CFU and 97000 CFU"}, {"measurement": "log reduction (CFU)", "setting": "[2]; at 12.5 μg/ml, 7 days", "value": 1.0}, {"measurement": "RFU/200 μl (replicates1-3), single values", "setting": "[3]; drug conc. 0.19", "value": "54850 RFU/200 μl and 54780 RFU/200 μl and 48860 RFU/200 μl and 48850 RFU/200 μl and 51920 RFU/200 μl and 53630 RFU/200 μl and 53710 RFU/200 μl and 53510 RFU/200 μl and 54820 RFU/200 μl"}, {"measurement": "RFU/ml (×104)", "setting": "[3]; drug conc. 0.19", "value": "26.4 RFU/ml (×104)"}, {"measurement": "RFU/200 μl (average)", "setting": "[3]; drug conc. 0.19, average of each replicate set", "value": "49877 RFU/200 μl and 53617 RFU/200 μl and 54817 RFU/200 μl"}, {"measurement": "RFU/200 μl (replicates1-3), single values", "setting": "[3]; drug conc. 0.39", "value": "12610 RFU/200 μl and 12620 RFU/200 μl and 10050 RFU/200 μl and 11010 RFU/200 μl and 12080 RFU/200 μl and 10560 RFU/200 μl and 10740 RFU/200 μl and 10520 RFU/200 μl and 12650 RFU/200 μl"}, {"measurement": "RFU/ml (×104)", "setting": "[3]; drug conc. 0.39", "value": "5.7 RFU/ml (×104)"}, {"measurement": "RFU/200 μl (average)", "setting": "[3]; drug conc. 0.39, average of each replicate set", "value": "11047 RFU/200 μl and 10607 RFU/200 μl and 12627 RFU/200 μl"}, {"measurement": "RFU/200 μl (replicates1-3), single values", "setting": "[3]; drug conc. 0.78", "value": "7570 RFU/200 μl and 7470 RFU/200 μl and 7230 RFU/200 μl and 7160 RFU/200 μl and 7680 RFU/200 μl and 7340 RFU/200 μl and 7150 RFU/200 μl and 7460 RFU/200 μl and 7540 RFU/200 μl"}, {"measurement": "RFU/ml (×104)", "setting": "[3]; drug conc. 0.78", "value": "3.7 RFU/ml (×104)"}, {"measurement": "RFU/200 μl (average)", "setting": "[3]; drug conc. 0.78, average of each replicate set", "value": "7357 RFU/200 μl and 7317 RFU/200 μl and 7527 RFU/200 μl"}, {"measurement": "concentration with significant antitubercular effect", "setting": "[3]; fluorescence-based assay", "value": "0.78 µg/mL and 0.39 µg/mL"}, {"measurement": "RFU/200 μl (replicates1-3), single values", "setting": "[4]", "value": "29490 RFU/200 μl and 29760 RFU/200 μl and 24060 RFU/200 μl and 22090 RFU/200 μl and 22930 RFU/200 μl and 29240 RFU/200 μl and 29310 RFU/200 μl and 29280 RFU/200 μl and 29510 RFU/200 μl and 51780 RFU/200 μl and 52060 RFU/200 μl and 51260 RFU/200 μl and 49980 RFU/200 μl and 50610 RFU/200 μl and 51510 RFU/200 μl and 51660 RFU/200 μl and 51460 RFU/200 μl and 51820 RFU/200 μl and 56880 RFU/200 μl and 57100 RFU/200 μl and 53750 RFU/200 μl and 53730 RFU/200 μl and 46980 RFU/200 μl and 53520 RFU/200 μl and 53690 RFU/200 μl and 53460 RFU/200 μl and 56940 RFU/200 μl"}, {"measurement": "RFU/ml (×104)", "setting": "[4]", "value": "13.6 RFU/ml (×104) and 25.7 RFU/ml (×104) and 27.0 RFU/ml (×104)"}, {"measurement": "antitubercular effect", "setting": "[4]", "value": "did not show a significant antitubercular effect"}, {"measurement": "RLU/50ul (replicates1-3), single values", "setting": "[5]", "value": "190 RLU/50ul and 260 RLU/50ul (2×) and 250 RLU/50ul and 280 RLU/50ul and 160 RLU/50ul (2×) and 150 RLU/50ul and 170 RLU/50ul and 540 RLU/50ul (2×) and 630 RLU/50ul (2×) and 530 RLU/50ul and 620 RLU/50ul and 670 RLU/50ul (2×) and 580 RLU/50ul and 690 RLU/50ul and 830 RLU/50ul (2×) and 790 RLU/50ul and 800 RLU/50ul and 880 RLU/50ul and 870 RLU/50ul and 750 RLU/50ul (2×)"}, {"measurement": "antitubercular effect", "setting": "[5]", "value": "did not show a significant antitubercular effect"}, {"measurement": "Efficacy in BALB/C mouse model of pulmonary tuberculosis, Average", "setting": "[6]", "value": 226667}, {"measurement": "CC50", "setting": "[7]; A549", "value": "> 500", "unit": "µg/mL"}, {"measurement": "CC50", "setting": "[7]; HEK-293", "value": "> 500", "unit": "µg/mL"}, {"measurement": "CC50", "setting": "[7]; SH-SY5Y", "value": "> 500", "unit": "µg/mL"}, {"measurement": "CC50", "setting": "[7]; THP-1", "value": "> 500", "unit": "µg/mL"}, {"measurement": "CC50", "setting": "[8]; L929", "value": "> 500", "unit": "µg/mL"}, {"measurement": "CC50", "setting": "[8]; Raw264.7", "value": "> 500", "unit": "µg/mL"}, {"measurement": "MIC", "setting": "[9]", "value": 25, "unit": "µg/mL"}, {"measurement": "MIC", "setting": "[10]", "value": 12.5, "unit": "µg/mL"}, {"measurement": "MIC", "setting": "[11]", "value": "> 100", "unit": "µg/mL"}, {"measurement": "MIC", "setting": "[12]", "value": "> 100", "unit": "µg/mL"}, {"measurement": "MIC", "setting": "[13]", "value": "> 100", "unit": "µg/mL"}, {"measurement": "MIC", "setting": "[14]", "value": "> 100", "unit": "µg/mL"}, {"measurement": "MIC", "setting": "[15]", "value": "> 100", "unit": "µg/mL"}, {"measurement": "MIC", "setting": "[16]", "value": "> 100", "unit": "µg/mL"}, {"measurement": "MIC", "setting": "[17]", "value": "> 100", "unit": "µg/mL"}, {"measurement": "MIC", "setting": "[18]", "value": "> 100", "unit": "µg/mL"}, {"measurement": "MIC", "setting": "[19]", "value": "> 100", "unit": "µg/mL"}, {"measurement": "MIC", "setting": "[20]", "value": "> 100", "unit": "µg/mL"}, {"measurement": "MIC", "setting": "[21]", "value": "> 100", "unit": "µg/mL"}, {"measurement": "MIC", "setting": "[22]", "value": "> 100", "unit": "µg/mL"}, {"measurement": "MIC", "setting": "[23]", "value": "> 100", "unit": "µg/mL"}, {"measurement": "MIC", "setting": "[24]", "value": "> 100", "unit": "µg/mL"}, {"measurement": "MIC", "setting": "[25]", "value": "> 100", "unit": "µg/mL"}]}
